Test results as given in patent US20200216439A1, “HETERO-1,5,6,7-TETRAHYDRO-4H-INDOL-4-ONES” (BAYER PHARMA AKTIENGESELLSCHAFT, priority 2015, published 2020).

Target: T1, catalytic domain of human Bub1 (amino acids 704-1085) (Homo sapiens, UniProt O43683)
T1 construct: catalytic domain of human Bub1 (amino acids 704-1085); His6 (N); made in house; host or cells: Hi5 insect cells
Experiment: Bub1 kinase assay (TR-FRET)
Type: biochemical
Conditions: not given
How it was run: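 Human Bub1 catalytic domain (704-1085, His6-tagged, Hi5-expressed, ~200 ng/mL) preincubated with compound 15 min at 22 °C, then reacted 60 min at 22 °C with 10 μM ATP and 1 μM biotinylated peptide substrate, pH 7.5. EDTA stop; TR-FRET 665/620 ratio; IC50 from 4-parameter fit, 11 concentrations in duplicate.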

T1 sequence (O43683 704-1085): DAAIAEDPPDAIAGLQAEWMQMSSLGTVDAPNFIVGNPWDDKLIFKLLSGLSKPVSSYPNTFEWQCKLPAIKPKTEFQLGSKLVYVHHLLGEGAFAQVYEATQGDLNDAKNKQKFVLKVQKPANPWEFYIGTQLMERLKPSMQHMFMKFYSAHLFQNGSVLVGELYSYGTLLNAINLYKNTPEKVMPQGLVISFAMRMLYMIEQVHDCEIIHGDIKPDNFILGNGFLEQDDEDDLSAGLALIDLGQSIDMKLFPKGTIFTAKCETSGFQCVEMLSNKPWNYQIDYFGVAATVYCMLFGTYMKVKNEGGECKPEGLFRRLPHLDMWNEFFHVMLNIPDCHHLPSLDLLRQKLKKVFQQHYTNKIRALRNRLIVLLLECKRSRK

Compound	IC50
COc1cc(C(=O)Nc2cc(-c3[nH]c4c(c3Nc3ccccc3)C(=O)CN(C(=O)N3CCOCC3)C4)ccn2)ccc1F [Example 260, 4-Fluoro-3-methoxy-N-4-[6-(morpholin-4-ylcarbonyl)-4-oxo-3(phenylamino)-4,5,6,7-tetrahydro-1H-pyrrolo[2,3-c]pyridin-2-yl]pyridin-2-ylbenzamide]	8 nM

Same assay, conditions: TR-FRET; ATP 10 μM, peptide substrate 1 μM; 60 min at 22° C.; average or median if tested more than once; read-out: Inhibition of Bub1 kinase IC50

Compound	IC50
CC(=O)Nc1cc(-c2[nH]c3c(c2Nc2ccccc2)C(=O)CN(C(=O)OC(C)C)C3)ccn1 [Example 185, Isopropyl 2-(2-acetamidopyridin-4-yl)-3-anilino-4-oxo-1,4,5,7-tetrahydro-6H-pyrrolo[2,3-c]pyridine-6-carboxylate]	14 nM
O=C1CN(S(=O)(=O)c2ccccn2)Cc2[nH]c(-c3ccncc3)c(Nc3ccccc3)c21 [Example 74, 3-(phenylamino)-2-(pyridin-4-yl)-6-(pyridin-2-ylsulfonyl)-1,5,6,7-tetrahydro-4H-pyrrolo[2,3-c]pyridin-4-one]	6 nM
Cc1cnccc1-c1[nH]c2c(c1Nc1ccccc1)C(=O)CSC2 [Example 37, 2-(3-Methylpyridin-4-yl)-3-(phenylamino)-1,7-dihydrothiopyrano[3,4-b]pyrrol-4(5H)-one]	482 nM
CN(C)S(=O)(=O)N1CC(=O)c2c([nH]c(-c3ccncc3OCC(F)F)c2Nc2ccccc2)C1 [Example 281, 3-Anilino-2-[3-(2,2-difluoroethoxy)pyridin-4-yl]-N,N-dimethyl-4-oxo-1,4,5,7-tetrahydro-6H-pyrrolo[2,3-c]pyridine-6-sulfonamide]	10 nM
O=C(Nc1cc(-c2[nH]c3c(c2Nc2ccccc2)C(=O)COC3)ccn1)c1cscn1 [Example 49, N-{4-[4-Oxo-3-(phenylamino)-1,4,5,7-tetrahydropyrano[3,4-b]pyrrol-2-yl]pyridin-2-yl}-1,3-thiazole-4-carboxamide]	51 nM
COc1cc(C(=O)Nc2cc(-c3[nH]c4c(c3Nc3ccccc3)C(=O)CN(C(=O)N3C[C@@H](C)O[C@@H](C)C3)C4)ccn2)ccc1F [Example 261, N-4-[6-[(2R,6S)-2,6-Dimethylmorpholin-4-yl]carbonyl-4-oxo-3-(phenylamino)-4,5,6,7-tetrahydro-1H-pyrrolo[2,3-c]pyridin-2-yl]pyridin-2-yl-4-fluoro-3-methoxybenzamide]	351 nM
Cc1cnccc1-c1[nH]c2c(c1Nc1ccccc1)C(=O)COC2 [Example 40, 2-(3-Methylpyridin-4-yl)-3-(phenylamino)-1,7-dihydropyrano[3,4-b]pyrrol-4(5H)-one]	1470 nM
CNC(=O)N1CC(=O)c2c([nH]c(-c3ccncc3OCC(F)(F)F)c2Nc2ccccc2)C1 [Example 243, N-Methyl-44-oxo-3-(phenylamino)-2-[3-(2,2,2-trifluoroethoxy)pyridin-4-yl]-1,4,5,7-tetrahydro-6H-pyrrolo[2,3-c]pyridine-6-carboxamide]	55 nM
COc1cc(C(=O)Nc2cc(-c3[nH]c4c(c3Nc3ccccc3)C(=O)CN(C(=O)SC(C)(C)C)C4)ccn2)ccc1F [Example 306, S-tert-butyl 3-anilino-2-{2-[(4-fluoro-3-methoxybenzoyl)amino]pyridin-4-yl}-4-oxo-1,4,5,7-tetrahydro-6H-pyrrolo[2,3-c]pyridine-6-carbothioate]	171 nM
CC(C)(C)OC(=O)N1CC(=O)c2c([nH]c(-c3ccncc3F)c2Nc2ccccc2)C1 [Example 11, tert-Butyl 2-(3-fluoropyridin-4-yl)-4-oxo-3-(phenylamino)-1,4,5,7-tetrahydro-6H-pyrrolo[2,3-c]pyridine-6-carboxylate]	8 nM
NC(CN1CC(=NO)c2c([nH]c(-c3ccncc3)c2Nc2ccccc2)C1)=NO (mixture of isomers) [Example 218, (1E/Z)—N′-Hydroxy-2-[(4E/Z)-4-(hydroxyimino)-3-(phenylamino)-2-(pyridin-4-yl)-1,4,5,7-tetrahydro-6H-pyrrolo[2,3-c]pyridin-6-yl]ethanimidamide]	79 nM
CCC(=O)N1CC(=O)c2c([nH]c(-c3ccnc(NC(C)=O)c3)c2Nc2ccccc2)C1 [Example 180, N-[4-(3-Anilino-4-oxo-6-propionyl-4,5,6,7-tetrahydro-1H-pyrrolo[2,3-c]pyridin-2-yl)pyridin-2-yl]acetamide]	5 nM
O=C1CN(C(=O)c2ccccn2)Cc2[nH]c(-c3ccncc3)c(Nc3ccccc3)c21 [Example 61, 3-(phenylamino)-2-(pyridin-4-yl)-6-(pyridin-2-ylcarbonyl)-1,5,6,7-tetrahydro-4H-pyrrolo[2,3-c]pyridin-4-one]	40 nM
COCCOc1cnccc1-c1[nH]c2c(c1Nc1ccccc1)C(=O)CN(S(=O)(=O)N(C)C)C2 [Example 280, 2-[3-(2-Methoxyethoxy)pyridin-4-yl]-N,N-dimethyl-4-oxo-3-(phenylamino)-1,4,5,7-tetrahydro-6H-pyrrolo[2,3-c]pyridine-6-sulfonamide]	6 nM
CC(=O)Nc1cc(-c2[nH]c3c(c2Nc2ccccn2)C(=O)CN(C(=O)OC(C)(C)C)C3)ccn1 [Example 310, tert-Butyl 2-(2-acetamidopyridin-4-yl)-4-oxo-3-(pyridin-2-ylamino)-1,4,5,7-tetrahydro-6H-pyrrolo[2,3-c]pyridine-6-carboxylate]	79 nM
CC(=O)Nc1cc(-c2[nH]c3c(c2Nc2ccccc2)C(=O)CN(C(=O)N2CCN(C)CC2)C3)ccn1 [Example 127, N-(4-{3-Anilino-6-[(4-methylpiperazin-1-yl)carbonyl]-4-oxo-4,5,6,7-tetrahydro-1H-pyrrolo[2,3-c]pyridin-2-yl}pyridin-2-yl)acetamide]	29 nM
COc1ccc(C(=O)Nc2cc(-c3c(Nc4ccccc4)c4c(n3C)CN(C(C)=O)CC4=O)ccn2)cc1F [Example 288, N-4-[6-Acetyl-1-methyl-4-oxo-3-(phenylamino)-4,5,6,7-tetrahydro-1H-pyrrolo[2,3-c]pyridin-2-yl]pyridin-2-yl-3-fluoro-4-methoxybenzamide]	404 nM
COCCOc1cnccc1-c1[nH]c2c(c1Nc1ccccc1)C(=O)CN(C(C)=O)C2 [Example 230, 6-Acetyl-2-[3-(2-methoxyethoxy)pyridin-4-yl]-3-(phenylamino)-1,5,6,7-tetrahydro-4H-pyrrolo[2,3-c]pyridin-4-one]	16 nM
O=C1COCc2[nH]c(-c3ccncc3)c(Nc3ccccc3)c21 [Example 6, 3-(phenylamino)-2-(pyridin-4-yl)-1,7-dihydropyrano[3,4-b]pyrrol-4(5H)-one]	42 nM
Cn1c2c(c(Nc3ccccc3)c1-c1ccncc1)C(=O)CN(S(C)(=O)=O)C2 [Example 64, 1-Methyl-6-(methylsulfonyl)-3-(phenylamino)-2-(pyridin-4-yl)-1,5,6,7-tetrahydro-4H-pyrrolo[2,3-c]pyridin-4-one]	1400 nM
COC(=O)Nc1cc(-c2[nH]c3c(c2Nc2ccccc2)C(=O)COC3)ccn1 [Example 53, Methyl {4-[4-oxo-3-(phenylamino)-1,4,5,7-tetrahydropyrano[3,4-b]pyrrol-2-yl]pyridin-2-yl}carbamate]	82 nM
O=C1CNCc2[nH]c(-c3ccnc(NC(=O)[C@@H]4C[C@H]4F)c3)c(Nc3ccccc3)c21 (relative stereo) [Example 142, rel-(1S,2R)—N-[4-(3-Anilino-4-oxo-4,5,6,7-tetrahydro-1H-pyrrolo[2,3-c]pyridin-2-yl)pyridin-2-yl]-2-fluorocyclopropanecarboxamide]	76 nM
COC(=O)N1CC(=O)c2c([nH]c(-c3ccnc(NC(C)=O)c3)c2Nc2ccc(F)cc2)C1 [Example 314, Methyl 2-[2-(acetylamino)pyridin-4-yl]-3-[(4-fluorophenyl)amino]-4-oxo-1,4,5,7-tetrahydro-6H-pyrrolo[2,3-c]pyridine-6-carboxylate]	8 nM
CN1CCN(C(=O)N2CC(=O)c3c([nH]c(-c4ccncc4)c3Nc3ccccc3)C2)CC1 [Example 95, 6-[(4-Methylpiperazin-1-yl)carbonyl]-3-(phenylamino)-2-(pyridin-4-yl)-1,5,6,7-tetrahydro-4H-pyrrolo[2,3-c]pyridin-4-one]	9 nM
O=C1CN(C(=O)C2CC2)Cc2[nH]c(-c3ccncc3)c(Nc3ccccc3)c21 [Example 5, 6-(Cyclopropylcarbonyl)-3-(phenylamino)-2-(pyridin-4-yl)-1,5,6,7-tetrahydro-4H-pyrrolo[2,3-c]pyridin-4-one]	5 nM
CC(C)(C)COC(=O)N1CC(=O)c2c([nH]c(-c3ccncc3)c2Nc2ccccc2)C1 [Example 78, 2,2-Dimethylpropyl 4-oxo-3-(phenylamino)-2-(pyridin-4-yl)-1,4,5,7-tetrahydro-6H-pyrrolo[2,3-c]pyridine-6-carboxylate]	73 nM
CS(=O)(=O)N1CC(=O)c2c([nH]c(-c3ccnc(NC(=O)[C@@H]4C[C@@H]4F)c3)c2Nc2ccccc2)C1 [Example 203]	2 nM
O=C1CN(C(=O)CCO)Cc2[nH]c(-c3ccncc3)c(Nc3ccccc3)c21 [Example 56, 6-(3-Hydroxypropanoyl)-3-(phenylamino)-2-(pyridin-4-yl)-1,5,6,7-tetrahydro-4H-pyrrolo[2,3-c]pyridin-4-one]	5 nM
COC(=O)N1CC(=O)c2c([nH]c(-c3ccnc(NC(C)=O)c3)c2Nc2ccc(C)cc2)C1 [Example 321, Methyl 2-[2-(acetylamino)pyridin-4-yl]-3-[(4-methylphenyl)amino]-4-oxo-1,4,5,7-tetrahydro-6H-pyrrolo[2,3-c]pyridine-6-carboxylate]	113 nM
O=C1CN(Cc2ccccc2)Cc2[nH]c(-c3ccncc3)c(Nc3ccccc3)c21 [Example 1, 6-Benzyl-3-(phenylamino)-2-(pyridin-4-yl)-1,5,6,7-tetrahydro-4H-pyrrolo[2,3-c]pyridin-4-one]	67 nM
